How the values were obtained:
Glucocorticoid receptor = target: T1, Glucocorticoid receptor (Homo sapiens, UniProt P04150)
T1 sequence (P04150 whole entry): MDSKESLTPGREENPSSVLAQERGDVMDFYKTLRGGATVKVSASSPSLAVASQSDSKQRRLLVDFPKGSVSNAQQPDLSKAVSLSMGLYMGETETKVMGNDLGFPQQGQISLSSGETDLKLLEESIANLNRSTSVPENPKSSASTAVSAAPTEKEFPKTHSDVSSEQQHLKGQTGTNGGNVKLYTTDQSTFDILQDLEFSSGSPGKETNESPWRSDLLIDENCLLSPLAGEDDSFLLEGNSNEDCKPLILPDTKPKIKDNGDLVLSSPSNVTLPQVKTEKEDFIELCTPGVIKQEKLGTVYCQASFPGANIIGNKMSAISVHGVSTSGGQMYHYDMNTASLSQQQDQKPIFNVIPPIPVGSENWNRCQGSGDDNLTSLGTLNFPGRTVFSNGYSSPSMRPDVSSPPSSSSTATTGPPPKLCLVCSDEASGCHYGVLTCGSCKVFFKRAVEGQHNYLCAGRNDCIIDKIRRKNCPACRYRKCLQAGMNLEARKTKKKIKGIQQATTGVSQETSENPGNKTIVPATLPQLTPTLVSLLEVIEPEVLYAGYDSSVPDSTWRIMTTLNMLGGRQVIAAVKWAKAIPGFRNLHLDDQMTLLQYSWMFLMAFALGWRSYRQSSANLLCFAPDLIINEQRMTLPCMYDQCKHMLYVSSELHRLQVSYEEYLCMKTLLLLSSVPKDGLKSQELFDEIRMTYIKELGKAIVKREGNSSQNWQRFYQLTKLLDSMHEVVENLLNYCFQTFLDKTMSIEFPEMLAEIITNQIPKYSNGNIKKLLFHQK

[1] = target: Neurotensin receptor type 1 (Homo sapiens, UniProt P30989)
Chain of Neurotensin receptor type 1 (P30989 whole entry): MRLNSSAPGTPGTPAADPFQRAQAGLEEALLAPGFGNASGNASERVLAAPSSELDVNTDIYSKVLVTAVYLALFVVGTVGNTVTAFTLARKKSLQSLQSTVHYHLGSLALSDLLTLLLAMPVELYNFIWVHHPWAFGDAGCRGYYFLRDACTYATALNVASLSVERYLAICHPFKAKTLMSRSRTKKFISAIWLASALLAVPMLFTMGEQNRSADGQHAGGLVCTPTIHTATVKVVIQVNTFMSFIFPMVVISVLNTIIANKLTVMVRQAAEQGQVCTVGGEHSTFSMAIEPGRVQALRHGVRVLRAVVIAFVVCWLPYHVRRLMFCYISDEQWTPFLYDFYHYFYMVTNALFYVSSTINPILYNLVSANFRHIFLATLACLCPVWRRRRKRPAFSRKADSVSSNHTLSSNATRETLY

[2] = target: T2, Muscarinic acetylcholine receptor M2 (Homo sapiens, UniProt P08172)
T2 sequence (P08172 whole entry): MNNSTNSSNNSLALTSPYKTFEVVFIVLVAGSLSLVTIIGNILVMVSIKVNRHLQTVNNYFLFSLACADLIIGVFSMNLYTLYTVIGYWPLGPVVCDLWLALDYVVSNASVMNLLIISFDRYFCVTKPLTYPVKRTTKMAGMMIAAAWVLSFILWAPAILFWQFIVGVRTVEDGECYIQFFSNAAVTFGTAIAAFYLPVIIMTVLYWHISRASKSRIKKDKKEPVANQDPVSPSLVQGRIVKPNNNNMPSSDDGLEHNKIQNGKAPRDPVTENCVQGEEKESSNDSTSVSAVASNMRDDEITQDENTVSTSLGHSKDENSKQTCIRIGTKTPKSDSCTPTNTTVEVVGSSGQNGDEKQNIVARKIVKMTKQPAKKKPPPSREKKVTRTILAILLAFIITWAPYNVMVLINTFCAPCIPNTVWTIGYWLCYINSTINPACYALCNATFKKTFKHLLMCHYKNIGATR

Progesterone receptor = target: T3, Progesterone receptor (Homo sapiens, UniProt P06401)
T3 sequence (P06401 whole entry): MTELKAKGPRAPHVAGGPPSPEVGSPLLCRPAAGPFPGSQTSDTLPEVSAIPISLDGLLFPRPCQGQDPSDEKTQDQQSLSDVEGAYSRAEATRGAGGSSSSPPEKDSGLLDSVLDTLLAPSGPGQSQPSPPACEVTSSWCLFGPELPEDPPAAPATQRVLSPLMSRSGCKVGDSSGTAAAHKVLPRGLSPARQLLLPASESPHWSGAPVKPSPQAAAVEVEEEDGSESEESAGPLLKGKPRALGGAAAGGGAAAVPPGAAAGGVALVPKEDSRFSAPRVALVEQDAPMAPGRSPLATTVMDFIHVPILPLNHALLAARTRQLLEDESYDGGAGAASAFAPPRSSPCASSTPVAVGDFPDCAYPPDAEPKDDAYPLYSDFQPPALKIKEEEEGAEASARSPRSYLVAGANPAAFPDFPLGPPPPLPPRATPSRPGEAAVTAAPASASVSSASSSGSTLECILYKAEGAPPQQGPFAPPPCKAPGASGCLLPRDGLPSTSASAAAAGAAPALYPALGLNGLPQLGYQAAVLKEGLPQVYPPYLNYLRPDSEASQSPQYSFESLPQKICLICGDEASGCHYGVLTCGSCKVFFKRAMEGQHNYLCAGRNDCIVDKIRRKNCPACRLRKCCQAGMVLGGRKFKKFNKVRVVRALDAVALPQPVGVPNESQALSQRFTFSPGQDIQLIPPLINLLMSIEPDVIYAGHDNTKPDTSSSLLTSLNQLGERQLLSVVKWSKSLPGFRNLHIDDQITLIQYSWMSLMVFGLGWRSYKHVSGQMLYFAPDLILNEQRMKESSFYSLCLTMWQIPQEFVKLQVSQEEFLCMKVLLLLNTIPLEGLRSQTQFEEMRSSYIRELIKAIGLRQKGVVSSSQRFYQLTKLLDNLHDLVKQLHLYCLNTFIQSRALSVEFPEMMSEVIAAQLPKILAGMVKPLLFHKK

D(4) dopamine receptor = target: T4, D(4) dopamine receptor (Homo sapiens, UniProt P21917)
T4 sequence (P21917 whole entry): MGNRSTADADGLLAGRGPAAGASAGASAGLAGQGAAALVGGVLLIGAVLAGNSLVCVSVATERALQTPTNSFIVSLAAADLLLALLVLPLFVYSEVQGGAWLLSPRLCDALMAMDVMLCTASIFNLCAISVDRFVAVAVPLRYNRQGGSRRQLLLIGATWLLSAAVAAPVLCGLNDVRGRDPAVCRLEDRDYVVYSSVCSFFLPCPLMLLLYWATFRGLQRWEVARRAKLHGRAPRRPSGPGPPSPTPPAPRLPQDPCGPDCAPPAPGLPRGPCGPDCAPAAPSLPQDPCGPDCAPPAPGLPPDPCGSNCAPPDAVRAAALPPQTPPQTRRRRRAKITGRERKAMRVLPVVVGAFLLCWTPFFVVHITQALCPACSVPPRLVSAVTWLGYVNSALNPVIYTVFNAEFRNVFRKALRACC

[3] = target: Beta-3 adrenergic receptor (Homo sapiens, UniProt P13945)
Chain of Beta-3 adrenergic receptor (P13945 whole entry): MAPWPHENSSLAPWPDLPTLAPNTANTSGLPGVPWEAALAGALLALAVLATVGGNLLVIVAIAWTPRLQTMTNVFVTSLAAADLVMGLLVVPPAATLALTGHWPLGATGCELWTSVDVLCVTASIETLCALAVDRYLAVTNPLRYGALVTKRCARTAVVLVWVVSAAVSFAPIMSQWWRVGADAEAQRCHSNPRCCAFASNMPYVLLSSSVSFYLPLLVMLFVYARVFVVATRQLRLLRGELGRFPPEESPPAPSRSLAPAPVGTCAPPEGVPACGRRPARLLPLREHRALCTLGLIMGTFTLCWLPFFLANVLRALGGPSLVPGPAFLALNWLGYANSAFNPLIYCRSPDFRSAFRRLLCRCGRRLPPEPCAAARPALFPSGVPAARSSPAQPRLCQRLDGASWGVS
Also: assay procedure not described here.

Row | Structure (SMILES) | AC50 (Glucocorticoid receptor) [µM] | AC50 [1] [µM] | AC50 [2] [µM] | AC50 (Progesterone receptor) [µM] | AC50 (D(4) dopamine receptor) [µM] | AC50 [3] [µM]
1 | Cc1onc(-c2ccccc2)c1-c1ccc(S(N)(=O)=O)cc1 [VALDECOXIB] | > 30 | > 30 | > 10 | > 30 | > 10 | > 30
2 | Nc1ccc(S(=O)(=O)Nc2nccs2)cc1 [SULFATHIAZOLE] | > 30 | > 30 | > 10 | > 30 | > 10 | > 30
3 | CCCC(CCC)C(=O)O [VALPROIC ACID] | > 30 | > 30 | > 10 | > 30 | > 10 | > 30

Source: ChEMBL document CHEMBL5291721, “A preclinical secondary pharmacology resource illuminates target-adverse drug reaction associations of marketed drugs” (Nat Commun, 2023)
